One block for each molecule: values may come before it.
Tests used:
[1] = target: T1, mT2R5 coupling to gustducin (Mus musculus, UniProt Q9JKT4); assay: Tastant-induced GTPγS binding to gustducin with insect cell membranes containing rho-mT2R5; type: biochemical; conditions: 1 mM
T1 construct: infectious Bacmid containing rhodopsin tagged mT2R5 (DBA/2-allele) was produced using the Bac-to-Bac system; rhodopsin tag (rho); made in house; host or cells: insect larval cells infected with recombinant Bacmid (Bac-to-Bac baculovirus system); membrane preparation
T1 sequence (Q9JKT4 1-300): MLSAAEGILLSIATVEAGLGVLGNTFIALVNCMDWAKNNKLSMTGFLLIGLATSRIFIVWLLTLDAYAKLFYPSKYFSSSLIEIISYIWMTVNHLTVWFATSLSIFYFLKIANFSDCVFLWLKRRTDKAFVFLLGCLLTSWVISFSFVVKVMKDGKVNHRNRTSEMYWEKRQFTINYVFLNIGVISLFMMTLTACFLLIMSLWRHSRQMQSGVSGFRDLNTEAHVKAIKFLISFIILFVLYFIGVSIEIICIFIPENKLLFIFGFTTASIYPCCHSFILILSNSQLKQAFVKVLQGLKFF
Experimental: To investigate the selectivity of T2R-G-protein coupling, mT2R5 was chosen for study because its activation by cycloheximide recapitulates mouse taste responses. Rho-tagged mT2R5 and gustducin were prepared using a baculovirus expression system. mT2R5-containing membranes were incubated with various purified G-proteins, including gustducin, and measured tastant-induced GTP-γS binding (Hoon et al., Biochem J 309:629-636 (1995)). Specifically, infectious Bacmid containing rhodopsin tagged mT2R5 (DBA/2-allele) was produced using the Bac-to-Bac system (Lifetechnologies, MD). Insect larval cells were infected for 60 h with recombinant Bacmid and membranes were prepared as described previously (Ryba and Tirindelli, J Biol Chem, 270:6757-6767 (1995)). Peripheral proteins were removed by treatment with 8 M urea and membranes were resuspended in 10 mM HEPES pH7.5, 1 mM EDTA and 1 mM DTT. The expression of rho-mT2R5 was assessed by Western blot using mAb B6-30 and quantitated by comparison with known amounts of rhodopsin. Approximately 300 pmol of rho-mT2R5 could be obtained from 2×10^8 infected cells. Gustducin and Gβ1γ8 heterodimers were isolated as described previously (Hoon et al., Biochem J 309:629-636 (1995); Ryba and Tirindelli, J Biol Chem, 270:6757-6767 (1995)). Receptor-catalyzed exchange of GDP for GTPγS on gustducin and other G-protein α-subunits was measured in the presence of 10 nM rho-mT2R5, 100 μM GDP, and 20 μM Gβ1γ8. All measurements were made at 15-minute time points, and reflect the initial rate of GTPγS binding.

[2] = target: T2, mT2R5 (Mus musculus, UniProt Q9JKT4); assay: FURA-2 [Ca2+]i imaging in HEK-293 cells expressing Gα15 and rho-mT2R5 (taster, DBA/2 allele); type: cell-based
T2 construct: expressed in transfected cells; host or cells: modified HEK-293 cells (PEAKrapid) expressing Gα15; pEAK10 vector
T2 sequence (Q9JKT4 1-300): T1 sequence (Q9JKT4 1-300)
Source text: (§1) In this system, receptor activation leads to increases in intracellular calcium [Ca2+]i, which can be monitored at the single cell level using the FURA-2 calcium-indicator dye (Tsien et al., Cell Calcium 6:145-157 (1985)). To test and optimize Gα15 coupling, two different GPCRs, a Gαi-coupled μ-opioid receptor (Reisine, Neuropharm. 34:463-472 (1995)) and a Gαq-coupled mGluR1 receptor (Masu et al., Nature 349:760-765 (1991)), were used. Transfection of these receptors into HEK-293 cell produced robust, agonist-selective, and Gα15-dependent Ca^2+ responses (FIG. 1).
(§2) A number of studies have shown that many GPCRs, in particular sensory receptors, require specific “chaperones” for maturation and targeting through the secretory pathway (Baker et al., Embo J 13:4886-4895 (1994); Dwyer et al., Cell 93:455-466 (1998)). Recently, Krautwurst et al. (Cell 95:917-926 (1998)) generated chimeric receptors consisting of the first 20 amino acids of rhodopsin and various rodent olfactory receptors. These were targeted to the plasma membrane and functioned as odorant receptors in HEK-293 cells. To determine whether rhodopsin sequences can also help target T2Rs to the plasma membra, rhodopsin-T2R chimeras (rho-T2Rs) were constructed. […] Similar results were obtained with 11 human and 16 rodent T2Rs (see below). To further enhance the level of T2R expression, rho-T2Rs were placed under the control of a strong EF-1α promoter, and introduced as episomal plasmids into modified HEK-293 cells expressing Gα15 (pEAKrapid cells).
(§3) A bridge overlap PCR extension technique was used to generate rho-T2R chimeras, which contain the first 39 amino acids of bovine rhodopsin in frame with human and rodent T2R coding sequences (Mehta and Singh, Biotechniques 26:1082-1086 (1999). All receptors were cloned into a pEAK10 mammalian expression vector (Edge Biosystems, MD). Modified HEK-293 cells (PEAK^rapid cells; Edge BioSystems, MD) were grown and maintained at 37° C. in UltraCulture medium (Bio Whittaker) supplemented with 5% fetal bovine serum, 100 μg/ml Gentamycin sulphate (Fisher), 1 μg/ml Amphotericin B and 2 mM GlutaMax I (Lifetechnologies). For transfection, cells were seeded onto matrigel coated 24-well culture plates or 35 mm recording chambers. After 24 h at 37° C., cells were washed in OptiMEM medium (Lifetechnologies) and transfected using LipofectAMINE reagent (Lifetechnologies). Transfection efficiencies were estimated by co-transfection of a GFP reporter plasmid, and were typically >70%. Immunofluoresence staining, and activity assays were performed 36-48 h after transfection.
(§4) Transfected cells were washed once in Hank's balanced salt solution with 1 mM sodium pyruvate and 10 mM HEPES, pH 7.4 (assay buffer), and loaded with 2 μM FURA-2 AM (Molecular Probes) for 1 h at room temperature. The loading solution was removed and cells were incubated in 200 μl of assay buffer for 1 h to allow the cleavage of the AM ester. For most experiments, 24-well tissue culture plates containing cells expressing a single rho-T2R were stimulated with 200 μl of a 2× tastant solution (see next section). [Ca^2+]i changes were monitored using a Nikon Diaphot 200 microscope equipped with a 10×/0.5 fluor objective with the TILL imaging system (T.I.L.L Photonics GmbH). Acquisition and analysis of the fluorescence images used TILL-Vision software. Generally, [Ca^2+]i was measured for 80-120 s by sequentially illuminating cells for 200 ms at 340 nm and 380 nm and monitoring the fluorescence emission at 510 nm using a cooled CCD camera. The F340/F380 ratio was analyzed to measure [Ca^2+]i.
(§5) Kinetics of activation and deactivation were measured using a bath perfusion system. Cells were seeded onto a 150 μl microperfusion chamber, and test solutions were pressure-ejected with a picospritzer apparatus (General Valve, Inc.). Flow-rate was adjusted to ensure complete exchange of the bath solution within 4-5 s. […]

[3] = target: T3, hT2R4 (Homo sapiens, UniProt Q9NYW5); assay: FURA-2 [Ca2+]i imaging in HEK-293 cells expressing Gα15 and rho-hT2R4; type: cell-based; conditions: high concentrations
T3 construct: Full-length hT2Rs were isolated by PCR amplification of genomic DNA; expressed in transfected cells; host or cells: HEK-293 cells (PEAKrapid) expressing Gα15
T3 sequence (Q9NYW5 1-299): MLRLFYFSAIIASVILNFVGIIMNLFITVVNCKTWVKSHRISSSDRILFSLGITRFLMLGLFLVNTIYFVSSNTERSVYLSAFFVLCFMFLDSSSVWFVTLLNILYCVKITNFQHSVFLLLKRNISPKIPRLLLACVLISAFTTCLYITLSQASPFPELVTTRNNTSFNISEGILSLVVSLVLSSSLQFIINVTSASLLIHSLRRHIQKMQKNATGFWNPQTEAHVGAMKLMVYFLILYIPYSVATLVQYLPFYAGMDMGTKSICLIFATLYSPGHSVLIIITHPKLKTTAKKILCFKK
Source text: as §1, §2, §3, §4, §5

[4] = target: T4, mT2R8 (Mus musculus, UniProt Q9JKT3); assay: FURA-2 [Ca2+]i imaging in HEK-293 cells expressing Gα15 and rho-mT2R8; type: cell-based; conditions: high concentrations
T4 construct: expressed in transfected cells; host or cells: HEK-293 cells (PEAKrapid) expressing Gα15
T4 sequence (Q9JKT3 1-297): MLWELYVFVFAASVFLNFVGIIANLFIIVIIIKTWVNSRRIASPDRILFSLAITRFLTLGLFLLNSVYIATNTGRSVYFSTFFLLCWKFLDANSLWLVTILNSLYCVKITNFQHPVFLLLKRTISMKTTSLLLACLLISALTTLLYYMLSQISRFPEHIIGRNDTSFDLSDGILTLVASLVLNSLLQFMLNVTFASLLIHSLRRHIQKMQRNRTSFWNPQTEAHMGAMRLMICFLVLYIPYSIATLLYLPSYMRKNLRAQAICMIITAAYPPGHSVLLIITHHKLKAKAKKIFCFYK
Source text: as §1, §2, §3
as §4, with “For most experiments, 24-well tissue culture plates containing cells expressing a single rho-T2R were stimulated with 200 μl of a 2× tastant solution (see next section).” left out
Kinetics of activation and deactivation were measured using a bath perfusion system. […]

[5] = target: T5, μ opioid receptor (Homo sapiens, UniProt P35372); assay: FURA-2 [Ca2+]i imaging in HEK-293 cells with Gα15 and μ opioid receptor; type: cell-based; conditions: 10 μM
T5 construct: expressed in transfected cells; host or cells: HEK-293 cells containing Gα15
T5 sequence (P35372 whole entry, species assumed): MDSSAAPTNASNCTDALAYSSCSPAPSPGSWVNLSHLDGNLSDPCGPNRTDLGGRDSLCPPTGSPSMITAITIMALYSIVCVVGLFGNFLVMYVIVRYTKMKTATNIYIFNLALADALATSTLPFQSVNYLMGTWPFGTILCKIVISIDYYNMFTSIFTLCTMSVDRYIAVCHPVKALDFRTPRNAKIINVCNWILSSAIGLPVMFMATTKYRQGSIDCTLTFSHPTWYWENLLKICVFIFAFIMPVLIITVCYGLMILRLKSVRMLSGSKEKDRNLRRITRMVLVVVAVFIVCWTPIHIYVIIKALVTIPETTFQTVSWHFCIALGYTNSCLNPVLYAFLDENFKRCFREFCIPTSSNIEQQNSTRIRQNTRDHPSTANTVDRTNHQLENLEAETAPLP
Source text: as §1

[6] = target: T6, mGluR1 receptor (Rattus norvegicus, UniProt P23385); assay: FURA-2 [Ca2+]i imaging in HEK-293 cells with Gα15 and mGluR1 receptor; type: cell-based; conditions: 20 μM
T6 construct: expressed in transfected cells; host or cells: HEK-293 cells containing Gα15
T6 sequence (P23385 19-1199): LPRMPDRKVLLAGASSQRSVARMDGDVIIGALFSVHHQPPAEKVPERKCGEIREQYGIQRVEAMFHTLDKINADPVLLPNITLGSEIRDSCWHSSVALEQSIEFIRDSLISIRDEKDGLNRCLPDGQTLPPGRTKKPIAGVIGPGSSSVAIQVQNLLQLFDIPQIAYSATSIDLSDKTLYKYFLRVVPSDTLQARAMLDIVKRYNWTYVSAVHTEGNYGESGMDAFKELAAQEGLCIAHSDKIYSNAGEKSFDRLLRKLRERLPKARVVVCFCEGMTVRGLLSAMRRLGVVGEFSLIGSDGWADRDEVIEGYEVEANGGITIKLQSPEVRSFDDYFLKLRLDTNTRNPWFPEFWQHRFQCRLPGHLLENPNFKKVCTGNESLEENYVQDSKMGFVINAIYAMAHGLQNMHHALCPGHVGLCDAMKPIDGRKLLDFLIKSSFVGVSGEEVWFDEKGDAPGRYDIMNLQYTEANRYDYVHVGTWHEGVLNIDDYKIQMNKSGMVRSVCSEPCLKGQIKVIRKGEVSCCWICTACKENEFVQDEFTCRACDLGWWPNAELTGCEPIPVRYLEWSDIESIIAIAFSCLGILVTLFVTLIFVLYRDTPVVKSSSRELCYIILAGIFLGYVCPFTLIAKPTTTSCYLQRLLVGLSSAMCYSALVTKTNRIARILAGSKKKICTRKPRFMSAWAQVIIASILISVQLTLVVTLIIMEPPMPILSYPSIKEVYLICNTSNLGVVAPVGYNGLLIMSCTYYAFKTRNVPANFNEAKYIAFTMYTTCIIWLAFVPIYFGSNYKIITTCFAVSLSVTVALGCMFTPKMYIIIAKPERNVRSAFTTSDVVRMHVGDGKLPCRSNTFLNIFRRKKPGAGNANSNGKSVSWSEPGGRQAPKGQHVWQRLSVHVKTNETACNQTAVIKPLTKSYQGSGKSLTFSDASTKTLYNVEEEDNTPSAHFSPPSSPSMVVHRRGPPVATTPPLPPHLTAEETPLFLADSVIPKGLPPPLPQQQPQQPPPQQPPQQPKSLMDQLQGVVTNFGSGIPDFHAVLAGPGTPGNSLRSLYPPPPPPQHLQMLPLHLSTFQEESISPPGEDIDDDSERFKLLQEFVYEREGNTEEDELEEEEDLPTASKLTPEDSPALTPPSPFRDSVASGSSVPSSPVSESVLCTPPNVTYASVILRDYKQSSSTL
Source text: as §1

Compound: NC(=S)Nc1ccccc1 [phenyl thiocarbamide]
gustducin activation [1]: not
[Ca2+]i response to tastant ([2]; 3 mM): not observed

[Ca2+]i response [3]: also responded
receptor activation [4]: activated
gustducin activation [1]: not
[Ca2+]i response to tastant ([2]; 10 mM): not observed
Compound: CCCc1cc(=O)[nH]c(=S)[nH]1 [6-n-propyl thiouracil]

Compound: C[C@@H](NC(=O)[C@@H](N)Cc1ccc(O)cc1)C(=O)NCC(=O)N(C)[C@@H](Cc1ccccc1)C(=O)NCCO [DAMGO]
[Ca2+]i response [5]: increase in [Ca2+]i

Compound: COc1cc2c(cc1OC)[C@@]13CCN4CC5=CCO[C@H]6CC(=O)N2[C@H]1[C@H]6[C@H]5C[C@H]43 [brucine]
gustducin activation [1]: not
[Ca2+]i response to tastant ([2]; 5 mM): not observed

gustducin activation [1]: not
[Ca2+]i response to tastant ([2]; 10 mM): not observed
Compound: O=C1NS(=O)(=O)c2ccccc21 [saccharin]

gustducin activation [1]: not
Compound: C=C[C@H]1C[N@@]2CC[C@H]1C[C@H]2[C@H](O)c1ccnc2ccc(OC)cc12 [quinine]

Compound: N[C@@]1(C(=O)O)CC[C@H](C(=O)O)C1 (racemic) [ACPD, trans (±) 1-amino-1,3 cyclopentane dicarboxylic acid]
[Ca2+]i response [6]: increase in [Ca2+]i

gustducin activation [1]: not
[Ca2+]i response to tastant ([2]; 3 mM): not observed
Compound: CC(=O)OC[C@H]1O[C@@](COC(C)=O)(O[C@H]2O[C@H](COC(C)=O)[C@@H](OC(C)=O)[C@H](OC(C)=O)[C@H]2OC(C)=O)[C@@H](OC(C)=O)[C@@H]1OC(C)=O [sucrose octaacetate]

Compound: Cn1c(=O)c2c(ncn2C)n(C)c1=O [caffeine]
gustducin activation [1]: not

Compound: CN1[C@@H]2CC[C@H]1C[C@@H](OC(=O)C(CO)c1ccccc1)C2 (stereo partly shown) [atropine]
gustducin activation [1]: not
[Ca2+]i response to tastant ([2]; 5 mM): not observed

[Ca2+]i response to tastant ([2]; 2 mM): not observed
Compound: O=C(O)/C=C/c1ccc(O)c(O)c1 [caffeic acid]
